Experimental findings from patent US7691842B2, “Tricyclic 6-alkylidene-penems as β-lactamase inhibitors” (Wyeth LLC, priority 2002, dated 2010) are described below.

pIC50: −log10 of the molar value. Counter-ions that a name gives are not always drawn. Like-named read-outs stand apart in the source and are kept apart here.

Assay [1] addresses class A β-lactamase TEM-1 (Escherichia coli, UniProt P62593). As to the kind of experiment: β-Lactamase inhibition, IC50 determination (nitrocefin, spectrophotometric). It is filed as biochemical, E. Coli. The note with it: for IC50: enzyme 4.3 nM, 10 min preincubation at 25° C., nitrocefin 50 μg/ml, 50 mM PO4, pH 7.0, read-out: IC50 (nM) Class A TEM-1. As to the method: (§1) IC50 Determination for the Penem Inhibitor
(§2) β-Lactamase inhibitory activity of the penem inhibitors was determined spectrophotometrically as described by Bush et al., [Bush, K., Macalintal, C., Rasmussen, B. A., Lee, V. and Yang, Y. Antimicrobial Agents and Chemotherapy 1993, 37, 851]. Homogeneously purified class A β-lactamases TEM-1 from E. Coli and Imi-1 from Enterobacter cloacae, class B enzyme CcrA from Bacteroides fragilis and class C enzyme AmpC from Enterobacter cloaca were employed in the assay. The enzyme concentrations for TEM-1, Imi-1, CcrA and AmpC were 4.3, 7.1, 1.2 and 2.1 nM, respectively. A wide range of inhibitor concentrations were prepared in 50 mM PO4, pH 7.0 to include the possible IC50 values. The substrate used to initiate the enzyme reaction was nitrocefin at 50 μg/ml in the same buffer as the inhibitor. Initially the enzyme and inhibitor (20 μl each) were preincubated for 10 minutes at 25° C. prior to the addition of 160 μl volume of nitrocefin. Initial rates of hydrolysis were monitored for 5 minutes at 495 nm using a Molecular Devices Spectra Max 250 with kinetic protocol of SoftMax Program. Readings from the Spectra Max 250 were exported and transferred to Microsoft Excel. The percent of inhibition of each inhibitor concentration was calculated based on the control enzyme activity. The inhibitor concentration that caused a 50% reduction in the enzymatic activity (IC50) was determined graphically.

Assay [2] concerns Clinical isolates that have been adapted to cause infection in mice. As to the kind of experiment: In vivo antibacterial protection (7 day survival of infected mice, ED50). Details: species or system mice strain CD-1. The note with it: Mus musculus, 168 h. The source says:
In Vivo Antibacterial Protection
Female mice strain CD-1, approximately 18-22 grams, were received from Charles River Laboratories and quarantined 7 days prior to use. In addition, mice may be rendered neutropenic using cytoxan for particular studies.
Clinical isolates that have been adapted to cause infection in mice, are used in the experiment, including infections with strains of E. coli, K. pneumoniae, M. morganii, E. cloacae, S. marcescens, C. freundii, staphylococci, streptococci, P. aeruginosa and N. gonorrhoeae.
Mice are challenged by injecting 0.5 ml intraperitoneally or 0.05 ml intranasally of a predetermined bacterial inoculum suspended in broth, saline or hog gastric mucin (supplemented with dried bovine hemoglobin for N. gonorrhoeae). […] Antibacterial doses (dose concentration prepared by two fold serial dilutions of the antibiotic) are dissolved or suspended in 0.2% aqueous agar or methocel, phosphate buffered saline or an adjuvant are administered orally, subcutaneously or intravenously in the following manner: • a) Orally or subcutaneously: Dose volume of 0.5 ml administered ½ hr after infection. A second dose may be administered 3 hr. after infection for treatment of infections with more virulent organisms. • b) Intravenously: Dose volume of 0.2 ml, administered ½ hr. after infection. For the treatment of infections with more virulent organisms, more doses, up to 48 hr may be administered. (Intravenous dosing will not exceed 3 doses/24 hr period.) • c) Oral pretreatment: Under special circumstances, the pH of the stomach needs to be adjusted in order to increase the gastric stability of the antibiotic. For this purpose, 0.5 ml of phosphate buffered saline (pH7.8, 0.06M) (or specific approved adjuvant) is administered orally ½ hr after infection, followed 5 minutes later by 0.5 ml of antibiotic (also orally) contained in phosphate buffered saline (pH7.8, 0.06M). Animal Species
A detailed explanation as to the number of animals needed for the determination of in vivo efficacy follows: • A) Novel antibiotics are tested at 5 different dose levels with 5 mice per dose level at each of three routes of administration (oral, subcutaneous and intravenous). […] This would require 25 mice/route with 3 routes/antibiotic or 75 mice per novel compound tested. One to two novel antibiotics will be tested per experiment (75-150 mice) • B) The effectiveness of the new compound must be compared to that of a standard, or antibiotic of known effectiveness. Known or previously tested antibiotics are tested at 5 dose levels with 5 mice per dose level by a single route of administration, for a total of 25 mice/antibiotic. Usually 3-6 antibiotics will be tested per experiment. (75-150 mice). • C) Untreated controls—In each of the above tests, untreated animals are infected with 3 different concentrations of bacterial inoculum with 10 mice per concentration (30 mice total in each and every test). These untreated controls are used to determine and maintain the infection level between 10-100 LD50s as required for test to test comparison and validity. Determination of Protective Effects of Antibacterial Agents:
The protective effects of the antibacterial agent(s) are measured by the survival of the infected untreated as compared to the treated animals. For this determination, animals are observed for 7 days after treatment. A census of survivors is taken twice daily and at that time dead as well as moribund animals are removed. The 7 day survival ratio from three separate tests are pooled for estimation of median effective dose (ED50) by computerized program for probit analysis (Cleeland, R. and E. Squires. 1991. Evaluation of New Antimicrobials in Vitro and in Experimental Animal Infections. In Antibiotics in Laboratory Medicine”, 3rd. ed., edited by Victor Lorian. Willams and Wilkins Baltimore, Md. pp. 752-783). […]

For assay [3], the target named is class A β-lactamase Imi-1 (Enterobacter cloacae, UniProt Q46991). As to the kind of experiment: β-Lactamase inhibition, IC50 determination (nitrocefin, spectrophotometric). Format: biochemical. As to the method:
as §1, §2

The target in assay [4] is class B enzyme CcrA (Bacteroides fragilis, UniProt P25910). The assay is described as above. The note with it: read-out: IC50 (nM) Class B Ccr. Format: biochemical. As to the method: as §1, §2
Assay [5] deals with class C enzyme AmpC (Enterobacter cloacae, UniProt P05364). As to the kind of experiment: biochemical. Also noted: species or system Enterobacter cloaca. As to the method: as §1, §2
Where [6] appears, read: Ratio of Piperacillin Inhibitor 4:1, read-out: ED50.
The mark [7] stands for this setting: enzyme 1.2 nM, 10 min preincubation at 25° C., nitrocefin 50 μg/ml, 50 mM PO4, pH 7.0.
Setting [8] is: Ratio of Piperacillin Inhibitor 2:1, read-out: ED50.

Chain of class C enzyme AmpC (P05364 21-381): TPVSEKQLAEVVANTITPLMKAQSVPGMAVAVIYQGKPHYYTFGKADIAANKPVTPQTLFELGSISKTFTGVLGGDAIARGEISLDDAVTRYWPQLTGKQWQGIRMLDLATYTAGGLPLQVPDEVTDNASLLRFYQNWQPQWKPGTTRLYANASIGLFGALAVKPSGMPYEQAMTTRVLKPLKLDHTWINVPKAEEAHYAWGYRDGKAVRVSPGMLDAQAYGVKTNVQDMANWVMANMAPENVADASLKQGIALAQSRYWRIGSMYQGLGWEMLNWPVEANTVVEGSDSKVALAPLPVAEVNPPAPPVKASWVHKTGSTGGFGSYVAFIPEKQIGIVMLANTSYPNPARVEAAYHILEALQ
Chain of class B enzyme CcrA (P25910 19-249): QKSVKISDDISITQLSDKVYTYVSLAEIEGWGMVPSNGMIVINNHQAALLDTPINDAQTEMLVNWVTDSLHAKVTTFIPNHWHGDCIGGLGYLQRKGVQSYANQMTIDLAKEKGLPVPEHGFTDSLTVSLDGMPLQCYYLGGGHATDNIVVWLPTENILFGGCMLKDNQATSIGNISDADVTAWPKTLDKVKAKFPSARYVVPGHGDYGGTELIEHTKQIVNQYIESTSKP
Chain of class A β-lactamase Imi-1 (Q46991 entry or part of it): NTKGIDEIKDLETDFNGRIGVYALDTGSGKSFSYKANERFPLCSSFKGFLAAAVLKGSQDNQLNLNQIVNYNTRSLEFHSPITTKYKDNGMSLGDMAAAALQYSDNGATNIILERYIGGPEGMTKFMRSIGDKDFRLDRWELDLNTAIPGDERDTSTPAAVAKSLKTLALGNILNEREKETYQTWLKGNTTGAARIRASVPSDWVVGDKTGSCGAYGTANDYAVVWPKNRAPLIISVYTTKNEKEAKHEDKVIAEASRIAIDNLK
Chain of class A β-lactamase TEM-1 (P62593 24-286 limits assumed): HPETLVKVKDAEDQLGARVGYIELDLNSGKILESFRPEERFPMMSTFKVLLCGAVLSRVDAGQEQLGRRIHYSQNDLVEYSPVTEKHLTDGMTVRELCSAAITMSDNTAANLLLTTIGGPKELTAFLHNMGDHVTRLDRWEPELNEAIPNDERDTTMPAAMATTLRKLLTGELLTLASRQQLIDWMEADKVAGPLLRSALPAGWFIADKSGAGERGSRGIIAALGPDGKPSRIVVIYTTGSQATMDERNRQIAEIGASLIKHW

Take `O=C(O)C1=CS[C@@H]2/C(=C\c3cn4c(n3)-c3ccccc3C4)C(=O)N12` [Example 12, (5R), (6Z)-6-(5H-Imidazo[2,1-a]isoindol-2-ylmethylene)-7-oxo-4-thia-1-aza-bicyclo[3.2.0]hept-2-ene-2-carboxylic acid sodium salt]: the negative logarithm of the IC50 (pIC50) in assay [1] is 8.59; in assay [3], 8.19; in assay [5] it was 7.55. Also, the ED50 in assay [2] (setting [6]) is 50 mg/kg. Also, the IC50 in assay [4] (setting [7]) turned out to be 42 nM.

As for `COc1ccc2c(c1)sc1nc(/C=C3/C(=O)N4C(C(=O)O)=CS[C@H]34)cn12` [Example 2], the values for the IC50 in assay [1] and in assay [4] (setting [7]) were 18 nM and 250 nM, respectively. Further, the ED50 in assay [2] (setting [8]) is over 64 mg/kg. For the same molecule, the negative logarithm of the IC50 (pIC50) in assay [3] was 6.74; in assay [5] it was 8.62.

Consider `O=C(O)C1=CS[C@@H]2/C(=C\c3cn4c(n3)nc3n4CCCC3)C(=O)N12` [Example 8, (5R), (6Z)-6-(4,5,6,7-tetrahydro-1,3a,3b,8-tetraaza-cyclopenta[a]indene-2-ylmethylene)-7-oxo-4-thia-1-aza-bicyclo[3.2.0]hept-2-ene-2-carboxylic acid sodium salt], for which the values for the pIC50 in assay [1], in assay [3] and in assay [5] were 8.62, 7.82 and 8.85, respectively. In addition, the median effective dose (ED50) in assay [2] (setting [6]) is 16 to 64 mg/kg. The IC50 in assay [4] (setting [7]) came to 450 nM.

Turning to `O=C(O)C1=CS[C@@H]2/C(=C\c3cn4c(n3)sc3cc(F)ccc34)C(=O)N12` [Example 14], the values for the pIC50 in assay [1], in assay [3] and in assay [5] were 8.09, 6.57 and 8.62, respectively. In assay [2] (Ratio of Piperacillin Inhibitor not given, read-out: ED50), the ED50 was over 64 mg/kg. The IC50 in assay [4] (pH 7) amounted to 370 nM.

With `O=C(O)C1=CS[C@@H]2/C(=C\c3cn4c(n3)sc3ccccc34)C(=O)N12` [Example 1, (5R,6Z)-6-(Imidazo[2,1-b][1,3]benzothiazol-2-ylmethylene)-7-oxo-4-thia-1-azabicyclo[3.2.0]hept-2-ene-2-carboxylic acid], the half-inhibitory concentration (IC50) in assay [1] was 10 nM; in assay [4] (setting [7]) it was 350 nM. Also, the ED50 in assay [2] (setting [8]) lay within 32 to 64 mg/kg. Also, the pIC50 in assay [3] is 6.80; in assay [5], 8.85.

On to `O=C(O)C1=CS[C@@H]2/C(=C\c3cn4c(ccc5ccccc54)n3)C(=O)N12` [Example 4, (5R),(6Z)-6-Imidazo[1,2-a]quinolin-2-ylmethylene-7-oxo-4-thia-1-azabicyclo[3.2.0]hept-2-ene-2-carboxylic acid], for which the figures for the pIC50 in assay [1], in assay [3] and in assay [5] were 8.22, 7.05 and 8.68, respectively. For the same molecule, the 50% effective dose (ED50) in assay [2] (setting [8]) fell in the range of 32 to 64 mg/kg. The concentration for half-maximal inhibition (IC50) in assay [4] (setting [7]) came to 900 nM.

For the molecule `CCOc1nc2nc(C=C3C(=O)N4C(C(=O)O)=CSC34)cn2c2c1CCC2` (centres unmarked) [Example 10, 6-(5-ethoxy-7,8-dihydro-6H-3,4,8b-triaza-as-indacen-2-ylmethylene)-7-oxo-4-thia-1-aza-bicyclo[3.2.0]hept-2-ene-2-carboxylic acid], the values for the pIC50 in assay [1], in assay [3] and in assay [5] were 7.32, 7.46 and 8.24, respectively. Also, in assay [2] (setting [6]), the ED50 came to 55.6 mg/kg. Besides, the IC50 in assay [4] (setting [7]) was determined as 140 nM.

Broadly, the pIC50 is the negative decadic logarithm of the IC50, by convention in mol/L. High values mean a low IC50, low ones a high IC50. Broadly, the ED50 is the dose that gives a 50% effect, or the effect in half of the subjects. One may read the IC50 as the concentration that inhibits the measured activity by half.
